# Measured values as given in US12084460B2, “Crystalline forms of a TLR7/TLR8 inhibitor” (NOVARTIS AG, priority 2018, dated 2024).
# Structures can show the parent of a compound that is named as a salt.
# What was measured:
# Type in all cases: physicochemical
# [1] = Competitive solvent equilibration of form A and form HA; conditions: 1:1 mixture of form A and form HA suspended in solvents, 25-50° C., seven days, XRPD/DVS
# Description: Competitive equilibrations were carried out to investigate the relative stability of form A and HA in a competitive solvent equilibration. A 1:1 mixture of form A and form HA was prepared and suspended in various solvents or mixture thereof at temperature between 25° C. and 50° C. for seven days. The resulting suspension was filtered and analyzed by XRPD/DVS.
# [2] = Granulation simulation / dry grinding experiment; conditions: for form change under dry grinding: XRPD and/or DSC
# Description: Behavior under granulation simulation experiment: The physical stability of crystalline forms A and HA were also evaluated in granulation simulation experiments. In these experiments granulating solvent was added dropwise to the crystalline form A or HA until the solid is wetted sufficiently. The mixture was then vortexed between each addition at 25° C. Alternatively, dry grinding was carried out. The crystallinity of the material (post-grinding) was re-evaluated by XRPD and/or DSC.
# [3] = Hygroscopicity / behaviour under humidity (DVS); conditions: for behaviour at high humidity: above 70% RH
# Description: Crystalline form A is an anhydrous form of (S)—N-(4-((5-(1,6-dimethyl-1H-pyrazolo[3,4-b]pyridin-4-yl)-3-methyl-4,5,6,7-tetrahydro-1H-pyrazolo[4,3-c]pyridin-1-yl)methyl)bicyclo[2.2.2]octan-1-yl)morpholine-3-carboxamide that is highly crystalline consisting of thin tabular particles.
# Crystalline form HA is a hydrated form of (S)—N-(4-((5-(1,6-dimethyl-1H-pyrazolo[3,4-b]pyridin-4-yl)-3-methyl-4,5,6,7-tetrahydro-1H-pyrazolo[4,3-c]pyridin-1-yl)methyl)bicyclo[2.2.2]octan-1-yl)morpholine-3-carboxamide.
# [4] = Solubility
# Description: Form A is highly soluble at pH values of 4.7 and below (solubility higher than 2 mg/mL), however, at higher pH levels, formation of less soluble form HA leads to lower solubility values.
# [5] = Stability under light exposure; conditions: exposure to 1200 kLux at 25° C.
# [6] = Behavior under compression (physical stability); conditions: 100 mg compressed 5 minutes at 10 tons
# Description: Behavior under compression: The physical stability of each crystalline form (Form A or Form HA) was also evaluated.
# 100 mg of the crystalline form was compressed for 5 minutes at 10 tons with a hydraulic press (diameter of the tablets 8 mm). The sample was then characterized by XRPD to detect any change in the solid state.
# [7] = Solid state stability in bulk and with excipient mixtures; conditions: bulk: 1 week 80° C., 50° C., 80° C.-75% RH, 50° C.-75% RH; excipient mixtures EM1, EM2, HGC, HMPC: 2 weeks 50° C. with or without 75% RH; HPLC and XRPD
# Description: A stability and excipient compatibility study was performed on form A and form HA. Both forms were subject to various test conditions as described below: • Test conditions in bulk: 1 week in a tight container at 80° C., 50° C., 80° C.-75% RH or 50° C.-75% RH. • Test condition with excipient mixtures (EM) • a. 1% of form A or form HA in EM1 for 2 weeks at 50° C. • b. 1% of form A or form HA in EM2 for 2 weeks at 50° C. • c. 10% of form A or form HA in crushed hard gelatin capsule (HGC) for 2 weeks at 50° C. • d. 10% of form A or form HA in crushed Hydroxypropyl Methyl Cellulose (HMPC) for 2 weeks at 50° C. • e. 1% of form A or form HA in EM1 for 2 weeks at 50° C. and 75% RH • f. 1% of form A or form HA in EM2 for 2 weeks at 50° C. and 75% RH • g. 10% of form A or form HA in crushed HGC for 2 weeks at 50° C. and 75% RH • h. 10% of form A or form HA in crushed HMPC for 2 weeks at 50° C. and 75% RH • EM1: Excipient mixture 1: Lactose spray dried (53%), Microcrystalline Cellulose (MCC) PH102 (40%), Crospovidone XL (5%), Aerosil (0.5%), Magnesium stearate (1.5%) • EM2: Excipient mixture 2: Mannitol DC (68%), MCC PH102 (26%), Ac-Di-Sol (4%), Aerosil (0.5%), Magnesium stearate (1.5%)
# The degradation products were analyzed by HPLC and the sample was analyzed by XPRD to detect any changes to the solid state.
# [8] = Corrosivity assessment of salt form
# Description: The criteria for selection are toxicological considerations, crystallinity, melting point, hygroscopicity, stability in bulk, compatibility with excipients, pH of aqueous solution, solubility in water and aqueous media, morphology, handling and polymorphic behavior.
structure (smiles),measurement,setting,value
"Cc1cc(N2CCc3c(c(C)nn3CC34CCC(NC(=O)[C@@H]5COCCN5)(CC3)CC4)C2)c2cnn(C)c2n1 [Form A, (S)—N-(4-((5-(1,6-dimethyl-1H-pyrazolo[3,4-b]pyridin-4-yl)-3-methyl-4,5,6,7-tetrahydro-1H-pyrazolo[4,3-c]pyridin-1-yl)methyl)bicyclo[2.2.2]octan-1-yl)morpholine-3-carboxamide]",water activity (aw) at which form A transforms into form HA,[1],~0.25
same,form change under dry grinding,[2]; listed as Modification A,stable
same,form change upon granulation,[2]; granulation with water,partially changed
same,behaviour at high humidity,[3]; listed as form A,transforms into the hydrate crystalline form HA
same,hygroscopicity,[3]; up to 70% RH,slightly hygroscopic
same,moisture uptake,[3]; up to 70% RH,1.3%
same,solubility,"[4]; pH 4.7, aqueous buffer, pH values of 4.7 and below",> 2000 µg/mL
same,physical and chemical stability under light exposure,[5],good physical and chemical stability
same,change of crystalline form under compression (XRPD),[6],No change of crystalline form
same,stability in bulk state and with excipients,[7],good stability
"Cc1cc(N2CCc3c(c(C)nn3CC34CCC(NC(=O)[C@@H]5COCCN5)(CC3)CC4)C2)c2cnn(C)c2n1 [Form HA, (S)—N-(4-((5-(1,6-dimethyl-1H-pyrazolo[3,4-b]pyridin-4-yl)-3-methyl-4,5,6,7-tetrahydro-1H-pyrazolo[4,3-c]pyridin-1-yl)methyl)bicyclo[2.2.2]octan-1-yl)morpholine-3-carboxamide]",form change under dry grinding,[2],no form change
same,form change upon granulation,"[2]; ethanol and water as granulation solvent, 25° C., XRPD",no form change
same,behaviour at low humidity,"[3]; below 20% RH, rehydrates to form HA at 30% RH",dehydrates to a non-characterized anhydrate form
same,hygroscopicity,[3]; humidities above 30% RH,slightly hygroscopic
same,solubility,"[4]; aqueous buffers in bio-relevant media, aqueous buffer",~4 µg/mL
"Cc1cc(N2CCc3c(c(C)nn3CC34CCC(NC(=O)[C@@H]5COCCN5)(CC3)CC4)C2)c2cnn(C)c2n1 [HCl salt, (S)—N-(4-((5-(1,6-dimethyl-1H-pyrazolo[3,4-b]pyridin-4-yl)-3-methyl-4,5,6,7-tetrahydro-1H-pyrazolo[4,3-c]pyridin-1-yl)methyl)bicyclo[2.2.2]octan-1-yl)morpholine-3-carboxamide]",corrosivity,[8],potential corrosivity
same,behaviour at high humidity,[3],deliquescent
